Laboratory results: US20240299387A1, “HETEROCYCLIC EGFR INHIBITORS FOR USE IN THE TREATMENT OF CANCER” (Blueprint Medicines Corporation, priority 2021, published 2024)
Where a name gives a salt, the structure may show the parent alone. Read-outs that look alike come from different tables or passages of the source.

What was measured:
EGFR (L858R T790M C797S) = target: T1, EGFR (L858R T790M C797S) (Homo sapiens, UniProt P00533, C797S/L858R/T790M); test: Biochemical EGFR inhibition assay (Caliper mobility shift), EGFR LRTMCS mutant
T1 construct: purchased SignalChem E10-122VG
T1 sequence (P00533 25-1210 T790M/C797S/L858R): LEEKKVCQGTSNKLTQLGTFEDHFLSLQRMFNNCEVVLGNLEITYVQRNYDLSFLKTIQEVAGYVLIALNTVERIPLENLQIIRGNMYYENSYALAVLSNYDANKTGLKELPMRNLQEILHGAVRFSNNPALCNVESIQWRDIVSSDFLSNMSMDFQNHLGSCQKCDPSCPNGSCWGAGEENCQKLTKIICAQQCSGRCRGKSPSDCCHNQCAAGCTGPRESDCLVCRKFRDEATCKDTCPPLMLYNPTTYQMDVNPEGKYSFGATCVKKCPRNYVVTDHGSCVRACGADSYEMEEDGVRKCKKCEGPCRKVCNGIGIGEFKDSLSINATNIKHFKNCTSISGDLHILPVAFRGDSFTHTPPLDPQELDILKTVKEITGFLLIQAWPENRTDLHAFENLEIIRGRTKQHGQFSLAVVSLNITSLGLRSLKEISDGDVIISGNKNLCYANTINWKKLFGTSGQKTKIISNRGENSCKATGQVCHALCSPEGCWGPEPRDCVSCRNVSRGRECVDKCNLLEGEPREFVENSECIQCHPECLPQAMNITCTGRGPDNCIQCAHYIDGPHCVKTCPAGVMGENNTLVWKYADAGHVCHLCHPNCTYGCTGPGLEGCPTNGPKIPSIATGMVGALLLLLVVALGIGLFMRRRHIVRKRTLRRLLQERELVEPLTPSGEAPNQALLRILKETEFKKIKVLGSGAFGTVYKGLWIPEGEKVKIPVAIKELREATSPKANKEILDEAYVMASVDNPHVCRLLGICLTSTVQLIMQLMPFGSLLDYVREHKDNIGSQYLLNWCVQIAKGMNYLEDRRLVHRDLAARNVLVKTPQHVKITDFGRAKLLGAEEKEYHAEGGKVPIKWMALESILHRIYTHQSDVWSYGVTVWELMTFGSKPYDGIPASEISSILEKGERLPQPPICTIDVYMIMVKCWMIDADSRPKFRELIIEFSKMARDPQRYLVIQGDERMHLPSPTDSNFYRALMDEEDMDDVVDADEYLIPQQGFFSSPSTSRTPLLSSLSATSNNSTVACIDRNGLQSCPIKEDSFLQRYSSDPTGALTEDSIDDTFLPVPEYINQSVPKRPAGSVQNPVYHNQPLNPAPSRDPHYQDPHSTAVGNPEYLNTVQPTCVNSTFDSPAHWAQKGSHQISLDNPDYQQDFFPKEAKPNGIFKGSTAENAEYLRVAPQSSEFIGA
Experimental: Reactions proceeded until between 10% to 20% total peptides were phosphorylated at room temperature (25° C.) and were terminated with 35 mM 2,2′,2″,2′″-(ethane-1,2-diyldinitrilo)tetraacetic acid (EDTA). Product was detected using the Caliper mobility shift detection method where the phosphorylated peptide (product) and substrate were electrophoretically separated and measured. Percent activity was plotted against log concentration of compound and points to generate an apparent IC50.

[1] = target: T2, EGFR L858R T790M in NCI-H1975 cell line (Homo sapiens, UniProt P00533, L858R/T790M); test: NCI-H1975 pEGFR AlphaLISA assay; format: cell-based; conditions: NCI-H1975 cells (EGFR L858R T790M), p-EGFR (Tyr1068), 4-5 hours incubation; read-out: Ext pEGFR H1975 GMean IC50 (nM) Protocol: @Pharmaron AlphaLISA (Num)
T2 construct: host or cells: NCI-H1975
T2 sequence (P00533 25-1210 T790M/L858R): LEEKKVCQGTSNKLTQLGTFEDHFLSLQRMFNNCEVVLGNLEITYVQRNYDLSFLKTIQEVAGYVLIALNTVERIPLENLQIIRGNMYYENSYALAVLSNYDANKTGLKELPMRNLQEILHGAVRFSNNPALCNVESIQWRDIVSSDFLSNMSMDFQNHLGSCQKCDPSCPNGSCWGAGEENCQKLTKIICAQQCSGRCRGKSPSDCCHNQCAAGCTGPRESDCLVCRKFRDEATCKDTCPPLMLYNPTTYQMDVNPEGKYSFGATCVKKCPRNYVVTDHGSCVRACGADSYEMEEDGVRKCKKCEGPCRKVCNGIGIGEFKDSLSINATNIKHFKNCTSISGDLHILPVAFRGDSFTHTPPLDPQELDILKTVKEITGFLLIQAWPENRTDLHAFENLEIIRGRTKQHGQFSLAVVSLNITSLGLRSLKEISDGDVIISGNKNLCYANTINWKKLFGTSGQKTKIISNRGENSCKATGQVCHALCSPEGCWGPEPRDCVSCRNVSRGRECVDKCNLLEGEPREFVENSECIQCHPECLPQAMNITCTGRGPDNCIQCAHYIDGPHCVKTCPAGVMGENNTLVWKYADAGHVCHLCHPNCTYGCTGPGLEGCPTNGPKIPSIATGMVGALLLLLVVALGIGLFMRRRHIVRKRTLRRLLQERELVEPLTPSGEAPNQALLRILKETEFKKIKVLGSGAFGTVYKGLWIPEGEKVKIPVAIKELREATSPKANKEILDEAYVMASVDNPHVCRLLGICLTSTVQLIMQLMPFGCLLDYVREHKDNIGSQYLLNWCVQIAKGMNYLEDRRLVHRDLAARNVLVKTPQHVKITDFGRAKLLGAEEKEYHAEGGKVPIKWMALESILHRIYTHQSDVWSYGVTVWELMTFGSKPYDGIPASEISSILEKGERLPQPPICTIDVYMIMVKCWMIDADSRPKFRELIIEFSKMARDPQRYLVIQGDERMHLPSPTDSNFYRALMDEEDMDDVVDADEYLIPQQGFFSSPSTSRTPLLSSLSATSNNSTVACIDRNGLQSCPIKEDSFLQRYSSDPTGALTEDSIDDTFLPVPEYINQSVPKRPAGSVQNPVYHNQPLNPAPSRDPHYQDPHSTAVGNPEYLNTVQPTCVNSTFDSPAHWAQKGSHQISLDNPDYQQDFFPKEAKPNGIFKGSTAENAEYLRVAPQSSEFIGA
Experimental: The NCI-H1975 cells were seeded at 12.5K/well in 22 μL into 384 well opti plate (PerkinElmer, 6007299) and adhering overnight at 37C/5% CO2. On the next day, the test compounds and DMSO control were added into H1975 cell plate followed by incubation at 37C/5% CO2 for 4-5 hours. […] Then 5 μL of a donor bead mix was added to each well followed by overnight incubation at room temperature in dark. On the next day, the plate was read at a compatible plate reader to obtain pEGFR signal. Percent of pEGFR inhibition was plotted against log concentration of compounds to generate IC50 values.

[2] = LRTMCS (PH) IC50 (nM) @ 1 mM ATP (Num)

In the case of `CNc1ncc(C(C)C)c2cc(Nc3ccnc(N4CC[C@@H](O)[C@@H](F)C4)n3)ncc12` [Example 92, (3S,4R)-3-fluoro-1-(4-((5-isopropyl-8-(methylamino)-2,7-naphthyridin-3-yl)amino)pyrimidin-2-yl)piperidin-4-ol], the IC50 (EGFR (L858R T790M C797S); [2]) is reported as 30 to 100 nM and the IC50 [1] is reported as greater than 50 nM.

`CC(C)NC(=O)c1ncc(C(C)C)c2cc(Nc3ccnc(N4CC[C@@H](O)[C@@](C)(F)C4)n3)ncc12` [Example 69, 6-((2-((3S,4R)-3-fluoro-4-hydroxy-3-methylpiperidin-1-yl)pyrimidin-4-yl)amino)-N,4-diisopropyl-2,7-naphthyridine-1-carboxamide] showed an IC50 (EGFR (L858R T790M C797S); [2]) of 20 to 30 nM and an IC50 [1] greater than 50 nM.

In the case of `CC(C)c1cnc(C(N)=O)c2cnc(Nc3ccnc(N4CC[C@@H](O)[C@@](C)(F)C4)n3)cc12` (single isomer, unassigned) [Example 61, 6-((2-((3S,4R)-3-fluoro-4-hydroxy-3-methylpiperidin-1-yl)pyrimidin-4-yl)amino)-4-isopropyl-2,7-naphthyridine-1-carboxamide or 6-((2-((3R,4S)-3-fluoro-4-hydroxy-3-methylpiperidin-1-yl)pyrimidin-4-yl)amino)-4-isopropyl-2,7-naphthyridine-1-carboxamide], the IC50 (EGFR (L858R T790M C797S); [2]) is reported as 20 to 30 nM and the IC50 [1] is reported as greater than 50 nM.

With `CC(C)c1ccc(OCCc2cncn2C)c2cnc(Nc3ccnc(N4CC[C@](C)(O)[C@H](F)C4)n3)cc12` [Example 38, (3R,4S)-3-fluoro-1-(4-((5-isopropyl-8-(2-(1-methyl-1H-imidazol-5-yl)ethoxy)isoquinolin-3-yl)amino)pyrimidin-2-yl)-4-methylpiperidin-4-ol] the IC50 (EGFR (L858R T790M C797S); [2]) was 15 to 20 nM and the IC50 [1] was greater than 50 nM.

In the case of `[2H]C([2H])([2H])O[C@H]1CCN(c2nccc(Nc3cc4c(C(C)C)ccc(OCCn5ccnc5)c4cn3)n2)C[C@H]1F` [Example 48, 8-(2-(1H-imidazol-1-yl)ethoxy)-N-(2-((3R,4S)-3-fluoro-4-(methoxy-d3)piperidin-1-yl)pyrimidin-4-yl)-5-isopropylisoquinolin-3-amine], the IC50 (EGFR (L858R T790M C797S); [2]) is reported as 15 to 20 nM and the IC50 [1] is reported as greater than 50 nM.

For `CC(C)c1ccc(OCCn2cnnc2)c2cnc(Nc3ccnc(N4CC[C@H]5COC[C@H]54)n3)cc12` (single isomer, unassigned) [Example 51], the IC50 (EGFR (L858R T790M C797S); read-out: LRTMCS (PH) IC50 (nM) @ 1 mM ATP (Num)) was 20 to 30 nM and the IC50 [1] was greater than 50 nM.

`CC(C)c1ccc(OCCc2ccnn2C)c2cnc(Nc3ccnc(N4CC[C@](C)(O)[C@H](F)C4)n3)cc12` [Example 34, (3R,4S)-3-fluoro-1-(4-((5-isopropyl-8-(2-(1-methyl-1H-pyrazol-5-yl)ethoxy)isoquinolin-3-yl)amino)pyrimidin-2-yl)-4-methylpiperidin-4-ol] showed an IC50 (EGFR (L858R T790M C797S); [2]) of 15 to 20 nM and an IC50 [1] greater than 50 nM.

With `CC(C)c1cnc(C(=O)N[C@H]2C[C@H](O)C2)c2cnc(Nc3ccnc(N4CC[C@@H](O)[C@@](C)(F)C4)n3)cc12` [Example 79, 6-((2-((3S,4R)-3-fluoro-4-hydroxy-3-methylpiperidin-1-yl)pyrimidin-4-yl)amino)-N-((1r,3r)-3-hydroxycyclobutyl)-4-isopropyl-2,7-naphthyridine-1-carboxamide] the IC50 (EGFR (L858R T790M C797S); [2]) was less than 15 nM and the IC50 [1] was 30 to 50 nM.

In the case of `CCO[C@H]1C[C@H](NC(=O)c2ncc(C(C)C)c3cc(Nc4ccnc(N5CC[C@@H](O)[C@@](C)(F)C5)n4)ncc23)C1` [Example 84, N-((1r,3r)-3-ethoxycyclobutyl)-6-((2-((3S,4R)-3-fluoro-4-hydroxy-3-methylpiperidin-1-yl)pyrimidin-4-yl)amino)-4-isopropyl-2,7-naphthyridine-1-carboxamide], the IC50 (EGFR (L858R T790M C797S); [2]) is reported as less than 15 nM and the IC50 [1] is reported as 20 to 30 nM.

In the case of `CO[C@@H]1CCN(c2nccc(Nc3cc4c(C(C)C)ccc(OCC5CN(C(C)=O)C5)c4cn3)n2)C[C@@H]1O` (single isomer, unassigned) [Example 56, 1-(3-(((3-((2-((3S,4R)-3-hydroxy-4-methoxypiperidin-1-yl)pyrimidin-4-yl)amino)-5-isopropylisoquinolin-8-yl)oxy)methyl)azetidin-1-yl)ethan-1-one or 1-(3-(((3-((2-((3R,4S)-3-hydroxy-4-methoxypiperidin-1-yl)pyrimidin-4-yl)amino)-5-isopropylisoquinolin-8-yl)oxy)methyl)azetidin-1-yl)ethan-1-one], the IC50 (EGFR (L858R T790M C797S); [2]) is reported as less than 15 nM and the IC50 [1] is reported as 30 to 50 nM.

Compound `CC(C)c1ccc(OCCn2ccnc2)c2cnc(Nc3ccnc(N4CC[C@](C)(O)[C@H](F)C4)n3)cc12` [Example 29, (3R,4S)-1-(4-((8-(2-(1H-imidazol-1-yl)ethoxy)-5-isopropylisoquinolin-3-yl)amino)pyrimidin-2-yl)-3-fluoro-4-methylpiperidin-4-ol] has an IC50 (EGFR (L858R T790M C797S); [2]) of less than 15 nM and an IC50 [1] of 20 to 30 nM.

For `CC(C)c1ccc(OCCn2cncn2)c2cnc(Nc3ccnc(N4CCC(C)(O)CC4)n3)cc12` [Example 15, 1-(4-((8-(2-(1H-1,2,4-triazol-1-yl)ethoxy)-5-isopropylisoquinolin-3-yl)amino)pyrimidin-2-yl)-4-methylpiperidin-4-ol], the IC50 (EGFR (L858R T790M C797S); [2]) was less than 15 nM and the IC50 [1] was 30 to 50 nM.

For `CNc1nnc(C(C)C)c2cc(Nc3ccnc(N4CC[C@@H](O)[C@@H](F)C4)n3)ncc12` [Example 95], the IC50 (EGFR (L858R T790M C797S); [2]) was greater than 100 nM and the IC50 [1] was greater than 50 nM.

For `CC(C)c1ccc(OC[C@@H]2COC(=O)N2C)c2cnc(Nc3ccnc(N4CC[C@@H](OCCN(C)C)[C@@H](F)C4)n3)cc12` [Example 53, (R)-4-(((3-((2-((3S,4R)-4-(2-(dimethylamino)ethoxy)-3-fluoro-piperidin-1-yl)pyrimidin-4-yl)amino)-5-isopropylisoquinolin-8-yl)oxy)methyl)-3-methyloxazolidin-2-one], the IC50 (EGFR (L858R T790M C797S); [2]) was 15 to 20 nM and the IC50 [1] was greater than 50 nM.

`CC(C)c1cnc(C(=O)N[C@@H]2CNC[C@H]2F)c2cnc(Nc3ccnc(N4CC[C@@H](O)[C@@](C)(F)C4)n3)cc12` (racemic) [Example 86, 6-((2-((3S,4R)-3-fluoro-4-hydroxy-3-methylpiperidin-1-yl)pyrimidin-4-yl)amino)-N-((3R,4R)-4-fluoropyrrolidin-3-yl)-4-isopropyl-2,7-naphthyridine-1-carboxamide trifluoroacetate and 6-((2-((3S,4R)-3-fluoro-4-hydroxy-3-methylpiperidin-1-yl)pyrimidin-4-yl)amino)-N-((3S,4S)-4-fluoropyrrolidin-3-yl)-4-isopropyl-2,7-naphthyridine-1-carboxamide trifluoroacetate] gave an IC50 (EGFR (L858R T790M C797S); [2]) of 20 to 30 nM and an IC50 [1] greater than 50 nM.

With `[2H]C([2H])([2H])O[C@H]1CCN(c2nccc(Nc3cc4c(C(C)C)ccc(OCCn5cnnc5)c4cn3)n2)C[C@H]1F` [Example 44, 8-(2-(4H-1,2,4-triazol-4-yl)ethoxy)-N-(2-((3R,4S)-3-fluoro-4-(methoxy-d3)piperidin-1-yl)pyrimidin-4-yl)-5-isopropylisoquinolin-3-amine] the IC50 (EGFR (L858R T790M C797S); [2]) was 15 to 20 nM and the IC50 [1] was greater than 50 nM.

`CC(=O)N1CC(CNc2ccc(C(C)C)c3cc(Nc4ccnc(N5CC[C@@H](O)[C@@](C)(F)C5)n4)ncc23)C1` [Example 5, 1-(3-(((3-((2-((3S,4R)-3-fluoro-4-hydroxy-3-methylpiperidin-1-yl)pyrimidin-4-yl)amino)-5-isopropylisoquinolin-8-yl)amino)methyl)azetidin-1-yl)ethan-1-one] was tested, and the IC50 (EGFR (L858R T790M C797S); [2]) was less than 15 nM and the IC50 [1] was 20 to 30 nM.

`CC(C)c1ccc(OCCn2cnnc2)c2cnc(Nc3ccnc(N4CC[C@H]5COC[C@H]54)n3)cc12` (single isomer, unassigned) [Example 50] gave an IC50 (EGFR (L858R T790M C797S); [2]) of 20 to 30 nM and an IC50 [1] greater than 50 nM.

`CO[C@H]1C[C@H](NC(=O)c2ncc(C(C)C)c3cc(Nc4ccnc(N5CC[C@@H](O)[C@@](C)(F)C5)n4)ncc23)C1` [Example 74, 6-((2-((3S,4R)-3-fluoro-4-hydroxy-3-methylpiperidin-1-yl)pyrimidin-4-yl)amino)-4-isopropyl-N-((1r,3r)-3-methoxycyclobutyl)-2,7-naphthyridine-1-carboxamide] was tested, and the IC50 (EGFR (L858R T790M C797S); [2]) was less than 15 nM and the IC50 [1] was 20 to 30 nM.

With `CC(C)c1ccc(OC[C@H]2CCC(=O)N2C)c2cnc(Nc3ccnc(N4CC[C@](C)(O)[C@H](F)C4)n3)cc12` [Example 25, (R)-5-(((3-((2-((3R,4S)-3-fluoro-4-hydroxy-4-methylpiperidin-1-yl)pyrimidin-4-yl)amino)-5-isopropylisoquinolin-8-yl)oxy)methyl)-1-methylpyrrolidin-2-one] the IC50 (EGFR (L858R T790M C797S); [2]) was 15 to 20 nM and the IC50 [1] was greater than 50 nM.

In the case of `[2H]C([2H])([2H])O[C@@H]1CCN(c2nccc(Nc3cc4c(C(C)C)ccc(OCCn5ccnc5)c4cn3)n2)C[C@@H]1F` [Example 49, 8-(2-(1H-imidazol-1-yl)ethoxy)-N-(2-((3S,4R)-3-fluoro-4-(methoxy-d3)piperidin-1-yl)pyrimidin-4-yl)-5-isopropylisoquinolin-3-amine], the IC50 (EGFR (L858R T790M C797S); [2]) is reported as 15 to 20 nM and the IC50 [1] is reported as greater than 50 nM.

`CO[C@@H]1CCN(c2nccc(Nc3cc4c(C(C)C)ccc(OCCn5cnnc5)c4cn3)n2)C[C@@H]1F` [Example 40, 8-(2-(4H-1,2,4-triazol-4-yl)ethoxy)-N-(2-((3S,4R)-3-fluoro-4-methoxypiperidin-1-yl)pyrimidin-4-yl)-5-isopropylisoquinolin-3-amine] was tested, and the IC50 (EGFR (L858R T790M C797S); [2]) was less than 15 nM and the IC50 [1] was greater than 50 nM.
